From US20250066310A1, “MULTI-SUBSTITUTED URACIL DERIVATIVE AND PREPARATION METHOD THEREFOR AND APPLICATION THEREOF” (HANGZHOU ADAMERCK PHARMLABS INC., priority 2021, published 2025)

Legend:
[1] = tested on: rats with autologous thrombus and thrombin-induced cerebral ischemic injury; assay: Ischemic brain injury induced by autologous thrombus and thrombin in rats (i.v., alone or with urokinase); format: in vivo, SD rats; details: n = 10
Procedure: Experimental Methods: A model of cerebral ischemic injury in SD rats was prepared by embolizing the middle cerebral artery of rats with autologous thrombus and thrombin via the external carotid artery to the internal carotid artery and the rats were randomly divided into 5 groups according to behavioral scores, a sham group (only the external carotid artery was isolated); a model-control group (saline was given to both groups in equal volume); urokinase (5000 U/kg) group; compound 1-1 ([…]) group; with 20 animals in each group (10 for detecting the rate of cerebral infarction, and the other 10 for pathological testing). Each group was administered slowly in the tail vein (1 ml per minute) 2 h after modeling, and the decrease in blood flow was monitored after thrombin injection and 120 min after administration. Neurobehavioral scoring was performed on the rats after 24 h to determine the neurological function of the rats; 2,3,5-triphenyltetrazolium chloride (TTC) staining was used to determine the rate of cerebral infarction and cerebral water content, and hematoxylin-eosin (HE) staining was used to observe the pathological damage of the brain in rats administered with the drug 2 h after cerebral ischemia.

[2] = tested on: rats with focal cerebral ischemia (MCAO)/reperfusion; assay: Prophylactic administration, cerebral ischemia-reperfusion injury (MCAO/R) in rats; format: in vivo; details: 6 mg/kg tail vein, Mean ± SD, n = 8
Procedure: Experimental methods: SD rats were randomly divided into 6 groups, set as sham group, model control group, positive control drug ozagrel (6 mg/kg) group, and test drug compound 1-1 high (9 mg/kg), medium (3 mg/kg), and low (1 mg/kg) dose group. The administered groups were preadministered by tail vein injection, and the sham and model control groups were given an equal volume of saline, once a day for 3 consecutive days. Ten minutes after the last administration, the rat MCAO/R model was established, and reperfusion was performed 2 h after ischemia. 24 h after MCAO reperfusion, neurobehavioral scores were performed to determine the neurological function of rats; 2,3,5-triphenyltetrazolium chloride (TTC) staining method was used to determine the rate of cerebral infarction and cerebral water content in rats.

Row | Molecule | Cerebral infarction rate ([1]; 5000 U/kg i.v., TTC staining, mean ± S.D.) | behavioral score ([1]; 5000 U/kg i.v., after 24 h, Mean ± SD) | cerebral water content (%) ([1]; 5000 U/kg i.v., mean ± S.D.) | Percentage decrease two hours after administration (%) ([1]; cerebral blood flow, 5000 U/kg i.v. 2 h after modeling, Mean ± SD) | Percentage decrease after thrombin injection (%) ([1]; cerebral blood flow, before administration, 5000 U/kg group, Mean ± SD) | Pathology Score ([1]; cerebral ischemic areas, 5000 U/kg i.v., mean ± SD) | Cerebral infarction rate (%) ([2]; 3 days before MCAO/R, 24 h after reperfusion) | behavioral score ([2]; MCAO/R) | cerebral water content (%) ([2]; MCAO/R)
1 | Urokinase | 9.72 ± 9.89 | 1.60 ± 0.70 | 79.78 ± 0.72 | 37.12 ± 4.49 | 50.10 ± 7.94 | 1.75 ± 0.86 | – | – | –
2 | O=C(O)/C=C/c1ccc(Cn2ccnc2)cc1 [Ozagrel, ozagrel, reference compound] | – | – | – | – | – | – | 17.07 ± 10.69 | 1.50 ± 0.76 | 81.00 ± 0.98
